Test results published in ChEMBL document CHEMBL1125524, “Adenosine A1 antagonists. 2. Structure-activity relationships on diuretic activities and protective effects against acute renal failure” (J Med Chem, 1992).

What was measured:
[1] = system: Rattus norvegicus; assay: Effect on urinary excretion potassium and sodium after oral administration of 0.4 mg/kg to rats(potassium and sodium excretion in control rat is 0.267+/-0.044); format: functional, Urine
[2] = system: Rattus norvegicus; assay: Oral diuretic activity was measured after oral administration of 0.4 mg/kg to rats(control volume is 1.72+/-0.31); format: functional, Urine
[3] = system: Rattus norvegicus; assay: Percent inhibition of serum creatinine by the compound given as ratio of Cr value in treated to vehicle treated ones after intraperitoneal administration of 0.1 mg/kg of compound to rats(vehicle 3.92+/-0.23); format: functional; details: ip
[4] = system: Rattus norvegicus; assay: Urea nitrogen concentration measured after intraperitoneal administration of 0.01 mg/kg of compound to rats(vehicle 130.6+/-4.12); format: functional
[5] = system: Rattus norvegicus; assay: Percent inhibition of Urea nitrogen by the compound given as ratio of UN value in treated to vehicle treated ones after intraperitoneal administration of 0.1 mg/kg of compound to rats(vehicle 141.3+/-8.3); format: functional; details: ip
[6] = system: Rattus norvegicus; assay: Ratio of urinary excretion value (Na+ concentration) in treated rats to that in control rats, at a peroral dose of 0.4 mg/Kg; format: functional, Urine
[7] = system: Rattus norvegicus; assay: Serum creatinine concentration measured after intraperitoneal administration of 0.1 mg/kg of compound to rats(vehicle 3.92+/-0.23); format: functional
[8] = system: Rattus norvegicus; assay: Percent inhibition of serum creatinine by the compound given as ratio of Cr value in treated to vehicle treated ones after intraperitoneal administration of 0.01 mg/kg of compound to rats(vehicle 4.50+/-0.24); format: functional; details: ip
[9] = system: Rattus norvegicus; assay: Serum creatinine concentration measured after intraperitoneal administration of 0.01 mg/kg of compound to rats(vehicle 4.50+/-0.24); format: functional
[10] = molecular target: Adenosine A2 receptor (Rattus norvegicus, UniProt P29276+P30543)
[11] = system: Rattus norvegicus; assay: Serum creatinine concentration measured after intraperitoneal administration of 1 mg/kg of compound to rats(vehicle 4.82+/-0.17); format: functional
[12] = system: Rattus norvegicus; assay: Urea nitrogen concentration measured after intraperitoneal administration of 0.1 mg/kg of compound to rats(vehicle 141.3+/-8.3); format: functional
[13] = system: Rattus norvegicus; assay: Percent inhibition of Urea nitrogen by the compound given as ratio of UN value in treated to vehicle treated ones after intraperitoneal administration of 1 mg/kg of compound to rats(vehicle 151.5+/-7.4); format: functional; details: ip
[14] = system: Rattus norvegicus; assay: Urea nitrogen concentration measured after intraperitoneal administration of 1 mg/kg of compound to rats(vehicle 151.5+/-7.4); format: functional
[15] = system: Rattus norvegicus; assay: Percent inhibition of Urea nitrogen by the compound given as ratio of UN value in treated to vehicle treated ones after intraperitoneal administration of 0.01 mg/kg of compound to rats(vehicle 130.6+/-4.12); format: functional; details: ip
[16] = system: Rattus norvegicus; assay: Ratio of sodium ion/potassium ion concentration in treated rats to that in control rats, at a peroral dose of 0.4 mg/Kg; format: functional
[17] = system: Rattus norvegicus; assay: Ratio of sodium ion/potassium ion concentration in treated rats to that in control rats, at a peroral dose of 1.6 mg/Kg; format: functional
[18] = system: Rattus norvegicus; assay: Ratio of urinary excretion value (urinary volume) in treated rats to that in control rats, at a peroral dose of 1.6 mg/Kg; format: functional, Urine
[19] = system: Rattus norvegicus; assay: Ratio of urinary excretion value (Na+ concentration) in treated rats to that in control rats, at a peroral dose of 1.6 mg/Kg; format: functional, Urine
[20] = system: Rattus norvegicus; assay: Effect on urinary excretion potassium and sodium after oral administration of 1.6 mg/kg to rats(potassium and sodium excretion in control rat is 0.169+/-0.012); format: functional, Urine
[21] = system: Rattus norvegicus; assay: Ratio of urinary excretion value (urinary volume) in treated rats to that in control rats, at a peroral dose of 0.4 mg/Kg; format: functional, Urine
[22] = system: Rattus norvegicus; assay: Percent inhibition of serum creatinine by the compound given as ratio of Cr value in treated to vehicle treated ones after intraperitoneal administration of 1 mg/kg of compound to rats(vehicle 4.82+/-0.17); format: functional; details: ip
[23] = system: Rattus norvegicus; assay: Oral diuretic activity was measured after oral administration of 1.6 mg/kg to rats(control volume is 0.97+/-0.05); format: functional, Urine
[24] = system: Rattus norvegicus; assay: Ratio of sodium ion/potassium ion concentration in treated rats to that in control rats, at a peroral dose of 25 mg/Kg; format: functional
[25] = system: Rattus norvegicus; assay: Oral diuretic activity was measured after oral administration of 1.6 mg/kg to rats(control volume is 0.69+/-0.03); format: functional, Urine
[26] = system: Rattus norvegicus; assay: Percent inhibition of serum creatinine by the compound given as ratio of Cr value in treated to vehicle treated ones after intraperitoneal administration of 10 mg/kg of compound to rats(vehicle 182.5+/-3.4); format: functional; details: ip
[27] = system: Rattus norvegicus; assay: Urea nitrogen concentration measured after intraperitoneal administration of 10 mg/kg of compound to rats(vehicle 182.5+/-3.4); format: functional
[28] = system: Rattus norvegicus; assay: Oral diuretic activity was measured after oral administration of 25 mg/kg to rats(control volume is 0.91+/-0.08); format: functional, Urine
[29] = system: Rattus norvegicus; assay: Ratio of urinary excretion value (urinary volume) in treated rats to that in control rats, at a peroral dose of 25 mg/Kg; format: functional, Urine
[30] = system: Rattus norvegicus; assay: Effect on urinary excretion potassium and sodium after oral administration of 25 mg/kg to rats(potassium and sodium excretion in control rat is 0.193+/-0.016); format: functional, Urine
[31] = system: Rattus norvegicus; assay: Ratio of urinary excretion value (Na+ concentration) in treated rats to that in control rats, at a peroral dose of 6.25 mg/Kg; format: functional, Urine
[32] = system: Rattus norvegicus; assay: Effect on urinary excretion potassium and sodium after oral administration of 1.6 mg/kg to rats(potassium and sodium excretion in control rat is 0.079+/-0.007); format: functional, Urine
[33] = system: Rattus norvegicus; assay: Percent inhibition of Urea nitrogen by the compound given as ratio of UN value in treated to vehicle treated ones after intraperitoneal administration of 10 mg/kg of compound to rats(vehicle 182.5+/-3.4); format: functional; details: ip
[34] = system: Rattus norvegicus; assay: Serum creatinine concentration measured after intraperitoneal administration of 10 mg/kg of compound to rats(vehicle 5.43+/-0.11); format: functional
[35] = system: Rattus norvegicus; assay: Ratio of urinary excretion value (urinary volume) in treated rats to that in control rats, at a peroral dose of 6.25 mg/Kg; format: functional, Urine
[36] = system: Rattus norvegicus; assay: Ratio of urinary excretion value (Na+ concentration) in treated rats to that in control rats, at a peroral dose of 25 mg/Kg; format: functional, Urine

SMILES: CC(C)Cn1c(=O)n(C)c(=O)c2[nH]c(C34CC5CC(CC3C5)C4)nc21
- Na [1]: 0.367 m equiv 6hr-1 100g-1
- Urine volume [2]: 2.41 ml 6hr-1 100g-1
- inhibition in vivo at 0.1 mg/kg [3]: 48%
- UN [4]: 115.5 mg/dL
- inhibition in vivo at 0.1 mg/kg [5]: 50%
- T/C [6]: 1.38
- Cr [7]: 2.04 mg/dL
- inhibition in vivo at 0.01 mg/kg [8]: 25%
- Cr [9]: 3.38 mg/dL
- Ki [10]: 850 nM
- Cr [11]: 2.76 mg/dL
- UN [12]: 70.9 mg/dL
- inhibition in vivo at 1 mg/kg [13]: 51%
- UN [14]: 74 mg/dL
- inhibition in vivo at 0.01 mg/kg [15]: 12%
- Na+/K+ [16]: 1.37
- Na+/K+ [17]: 1.73
- T/C [18]: 2.51
- T/C [19]: 2.43
- Na [20]: 0.409 m equiv 6hr-1 100g-1
- T/C [21]: 1.4
- inhibition in vivo at 1 mg/kg [22]: 42%
- Urine volume [23]: 2.43 ml 6hr-1 100g-1

SMILES: Cn1c(=O)c2nc[nH]c2n(C)c1=O.O [THEOPHYLLINE]
- Na+/K+ [24]: 1.08
- Urine volume [25]: 0.71 ml 6hr-1 100g-1
- inhibition in vivo at 10 mg/kg [26]: 2%
- UN [27]: 174 mg/dL
- Urine volume [28]: 1.22 ml 6hr-1 100g-1
- T/C [29]: 1.34
- Na [30]: 0.417 m equiv 6hr-1 100g-1
- T/C [31]: 1.52
- Na [32]: 0.09 m equiv 6hr-1 100g-1
- Na+/K+ [17]: 1.06
- T/C [18]: 1.03
- T/C [19]: 1.14
- inhibition in vivo at 10 mg/kg [33]: 5%
- Cr [34]: 5.32 mg/dL
- T/C [35]: 1.42
- T/C [36]: 2.16
